Reference: ChEMBL document CHEMBL1130606, “Synthesis and cytotoxicity of acetyl-4H,9H-naphtho[2,3-b]thiophene-4,9-diones” (1998)

Columns and labels:
CCRF-CEM = assay: Compound was evaluated for cytotoxicity against CCRF-CEM leukemia cell line; type: functional; conditions: Homo sapiens
IGROV-1 = assay: Compound was evaluated for cytotoxicity against IGROV1 Ovarian cancer cell line; type: functional; conditions: Homo sapiens
MCF7 [1] = assay: Compound was evaluated for cytotoxicity against MCF-7 breast cancer cell lines; type: functional; conditions: Homo sapiens
LOX IMVI = assay: Compound was evaluated for cytotoxicity against LOX IMVI melanoma cell line; type: functional; conditions: Homo sapiens
MDA-N = assay: Compound was evaluated for cytotoxicity against MDA-N breast cancer cell line; type: functional; conditions: Homo sapiens
MDA-MB-435 = assay: Compound was evaluated for cytotoxicity against MDA-MB-435 breast cancer cell line; type: functional; conditions: Homo sapiens
NCI-H460 [2] = assay: Compound was evaluated for cytotoxicity against NCI-H460 non small cell lung cancer cell line; type: functional; conditions: Homo sapiens
OVCAR-3 = assay: Compound was evaluated for cytotoxicity against OVCAR-3 Ovarian cancer cell line; type: functional; conditions: Homo sapiens
NCI-H23 [3] = assay: Compound was evaluated for cytotoxicity against NCI-H23 non small cell lung cancer cell line; type: functional; conditions: Homo sapiens
SK-MEL-5 = assay: Compound was evaluated for cytotoxicity against SK-MEL-5 melanoma cell line; type: functional; conditions: Homo sapiens
MOLT-4 = assay: Compound was evaluated for cytotoxicity against MOLT-4 leukemia cell line; type: functional; conditions: Homo sapiens
SF-539 [4] = assay: Compound was evaluated for cytotoxicity against SF-539 CNS cancer cell line; conditions: Homo sapiens
SNB-19 [5] = assay: Compound was evaluated for cytotoxicity against SNB-19 CNS cancer cell line; conditions: Homo sapiens
HCT-15 [6] = assay: Compound was evaluated for cytotoxicity against HCT-15 colon cancer cell line; conditions: Homo sapiens
SW-620 [7] = assay: Compound was evaluated for cytotoxicity against SW-620 colon cancer cell line; conditions: Homo sapiens
NCI/ADR-RES = assay: Compound was evaluated for cytotoxicity against MCF 7/ADR-RES breast cancer cell line; conditions: Homo sapiens
NCI-H522 [8] = assay: Compound was evaluated for cytotoxicity against NCI-H522 non small cell lung cancer cell line; conditions: Homo sapiens
KB = assay: Effective cytotoxic dose against KB cells was evaluated; type: functional; conditions: Homo sapiens, read-out: ED50 (the source's name)
HCT-15 [9] = assay: Compound was evaluated for cytotoxicity against HCT-15 colon cancer cell line; type: functional; conditions: Homo sapiens
NCI-H522 [10] = assay: Compound was evaluated for cytotoxicity against […] non small cell lung cancer cell line; type: functional; conditions: Homo sapiens
SNB-19 [11] = assay: Compound was evaluated for cytotoxicity against SNB-19 CNS cancer cell line; type: functional; conditions: Homo sapiens
SW-620 [12] = assay: Compound was evaluated for cytotoxicity against SW-620 colon cancer cell line; type: functional; conditions: Homo sapiens
MCF7 [13] = assay: Compound was evaluated for cytotoxicity against MCF-7 breast cancer cell line; type: functional; conditions: Homo sapiens
SF-539 [14] = assay: Compound was evaluated for cytotoxicity against SF-539 CNS cancer cell line; type: functional; conditions: Homo sapiens
NCI-H460 [15] = assay: Compound was evaluated for cytotoxicity against NCI-H460 non small cell kung cancer cell line; type: functional; conditions: Homo sapiens
NCI-H23 [16] = assay: Compound was evaluated for cytotoxicity against NCI-H23 non small cell kung cancer cell line; type: functional; conditions: Homo sapiens
SR = assay: Compound was evaluated for cytotoxicity against SR leukemia cell line; type: functional; conditions: Homo sapiens
NCI-H522 [17] = assay: Compound was evaluated for cytotoxicity against […] non small cell kung cancer cell line; type: functional; conditions: Homo sapiens

`CC(=O)c1csc2c1C(=O)c1ccccc1C2=O` showed a GI50 (CCRF-CEM) of 1550 nM, a GI50 (IGROV-1) of 2450 nM and a GI50 (MCF7 [1]) of 2090 nM. The GI50 (LOX IMVI) was 2340 nM, the GI50 (MDA-N) was 933 nM and the GI50 (MDA-MB-435) was 324 nM. For the same compound, the GI50 (NCI-H460 [2]) was 1320 nM, the GI50 (OVCAR-3) was 3550 nM and the GI50 (NCI-H23 [3]) was 1050 nM. The GI50 (SK-MEL-5) was 170 nM, the GI50 (MOLT-4) was less than 10 nM and the GI50 (SF-539 [4]) was 2040 nM. It also gave a GI50 (SNB-19 [5]) of 1780 nM, a GI50 (HCT-15 [6]) of 17400 nM and a GI50 (SW-620 [7]) of 2190 nM. The GI50 (NCI/ADR-RES) was 2880 nM and the GI50 (NCI-H522 [8]) was 1740 nM.

Work on `CC(=O)c1ccc2c(c1)C(=O)c1scc(C(C)=O)c1C2=O` yielded an EC50 (KB) of 450 nM.

For `CC(=O)c1cc2c(s1)C(=O)c1ccccc1C2=O`, the GI50 (CCRF-CEM) was 1000 nM, the GI50 (HCT-15 [9]) was 708 nM and the GI50 (IGROV-1) was 1780 nM. For the same compound, the GI50 (LOX IMVI) was 347 nM, the GI50 (MDA-N) was 1200 nM and the GI50 (MDA-MB-435) was 339 nM. The GI50 (NCI-H522 [10]) was 407 nM, the GI50 (NCI-H460 [2]) was 457 nM and the GI50 (OVCAR-3) was 501 nM. The GI50 (NCI-H23 [3]) was 447 nM, the GI50 (SNB-19 [11]) was 501 nM and the GI50 (SK-MEL-5) was 347 nM. For the same compound, the GI50 (SW-620 [12]) was 457 nM, the GI50 (MOLT-4) was 2040 nM and the GI50 (MCF7 [13]) was 1700 nM. It also gave a GI50 (SF-539 [14]) of 759 nM and a GI50 (NCI/ADR-RES) of 1910 nM.

`CC(=O)c1cc2c(o1)C(=O)c1ccccc1C2=O` [NAPABUCASIN] showed an EC50 (KB) of 4200 nM.

`CC(=O)c1ccc2c(c1)C(=O)c1sc(C(C)=O)cc1C2=O` was tested, and the GI50 (CCRF-CEM) was 182 nM, the GI50 (HCT-15 [9]) was 40.7 nM and the GI50 (IGROV-1) was 427 nM. For the same compound, the EC50 (KB) was roughly 1500 nM, the GI50 (LOX IMVI) was 219 nM and the GI50 (MDA-N) was 316 nM. The GI50 (MDA-MB-435) was 178 nM, the GI50 (NCI-H460 [15]) was 363 nM and the GI50 (OVCAR-3) was 331 nM. It also gave a GI50 (NCI-H23 [16]) of 603 nM, a GI50 (SNB-19 [11]) of 1350 nM and a GI50 (SR) of 24.6 nM. It also gave a GI50 (SK-MEL-5) of 174 nM, a GI50 (SW-620 [12]) of 204 nM and a GI50 (MOLT-4) of 66.1 nM. It also gave a GI50 (MCF7 [13]) of 316 nM, a GI50 (SF-539 [14]) of 355 nM and a GI50 (NCI-H522 [17]) of 224 nM. The GI50 (NCI/ADR-RES) was 324 nM.
